Test results reported in paper PMC6137146, “A small molecule targeting myoferlin exerts promising anti-tumor effects on breast cancer” (Nature Communications, 2018).

Biological target: T1, myoferlin (MYOF) (Homo sapiens, UniProt Q9NZM1)
T1 construct: C2D domain (F3 construct, amino acids 1116–1272, GST fusion in pGEX4T-1; ~44 kDa in SPR)
T1 sequence (Q9NZM1 1116-1272): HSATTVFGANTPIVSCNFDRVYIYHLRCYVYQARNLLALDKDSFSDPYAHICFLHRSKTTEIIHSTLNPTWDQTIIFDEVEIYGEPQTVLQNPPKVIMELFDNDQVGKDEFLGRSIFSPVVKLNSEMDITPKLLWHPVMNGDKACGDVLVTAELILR
Test: SPR (Biacore X-100, C2D immobilized on CM5 chip); supported by competition pull-down with WJ460-biotin
Assay type: binding

Kd: ~1330 nM
SMILES: COc1ccccc1N1C(=O)CSC1c1cccc(C(=O)NCCCCc2ccccc2)c1 (stereo not shown) [WJ460]
